The target of this test is T1, FLT3 (Homo sapiens, UniProt P36888).
T1 sequence (P36888 27-993): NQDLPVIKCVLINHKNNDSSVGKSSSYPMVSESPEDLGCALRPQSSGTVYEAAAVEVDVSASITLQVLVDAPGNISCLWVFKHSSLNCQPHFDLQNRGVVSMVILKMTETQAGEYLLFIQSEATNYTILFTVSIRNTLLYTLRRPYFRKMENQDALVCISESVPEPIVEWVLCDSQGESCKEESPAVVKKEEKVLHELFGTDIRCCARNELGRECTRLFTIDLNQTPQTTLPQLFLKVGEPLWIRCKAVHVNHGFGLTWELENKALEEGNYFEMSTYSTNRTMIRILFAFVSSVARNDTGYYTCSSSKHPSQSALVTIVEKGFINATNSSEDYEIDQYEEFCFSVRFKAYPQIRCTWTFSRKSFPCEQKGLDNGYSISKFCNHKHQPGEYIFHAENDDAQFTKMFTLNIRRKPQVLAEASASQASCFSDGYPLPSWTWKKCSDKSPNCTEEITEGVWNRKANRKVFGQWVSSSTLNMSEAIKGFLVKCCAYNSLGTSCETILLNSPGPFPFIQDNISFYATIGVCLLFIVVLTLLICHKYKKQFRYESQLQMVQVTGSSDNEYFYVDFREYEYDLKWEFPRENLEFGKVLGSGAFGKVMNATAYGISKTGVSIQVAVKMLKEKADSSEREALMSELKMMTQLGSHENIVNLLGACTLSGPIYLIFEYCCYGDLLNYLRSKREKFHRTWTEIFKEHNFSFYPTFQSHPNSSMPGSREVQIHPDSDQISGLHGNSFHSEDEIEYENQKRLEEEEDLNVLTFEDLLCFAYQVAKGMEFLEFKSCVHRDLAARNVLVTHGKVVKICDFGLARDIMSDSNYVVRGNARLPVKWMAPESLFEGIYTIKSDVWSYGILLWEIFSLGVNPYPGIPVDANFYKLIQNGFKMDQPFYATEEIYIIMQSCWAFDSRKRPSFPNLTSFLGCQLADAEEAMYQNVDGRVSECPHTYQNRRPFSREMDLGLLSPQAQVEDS
Nature of the test: Inhibition of FLT3, 33P-ATP kinase assay with filter-binding detection. The test is classed as biochemical. Conditions: 33P-ATP 10 uM, 2 hours at room temperature, filter-binding method. The method, then: Prepare indicated substrate in freshly prepared Base Reaction Buffer (20 mM Hepes (pH 7.5), 10 mM MgCl2, 1 mM EGTA, 0.02% Brij35, 0.02 mg/ml BSA, 0.1 mM Na3VO4, 2 mM DTT, 1% DMSO). Deliver any required cofactors to the substrate solution above. Deliver indicated kinase into the substrate solution and gently mix. The testing compounds in DMSO was added into the kinase reaction mixture by Acoustic technology (Echo550; nanoliter range) and incubated for 20 minutes at room temperature. Deliver 33P-ATP (specific activity […]) into the reaction mixture to initiate the reaction. Incubate kinase reaction for 2 hours at room temperature. Reactions are spotted onto P81 ion exchange paper. Detect kinase activity by filter-binding method.
Inhibition of FLT3 with 4-Quinolone Derivatives

A value given as a limit tells only on which side of the number the result lay.

`O=c1c2cc(F)ccc2sc2c(N3CCNCC3)nc3ccccc3c12` [compound 7739, 10-fluoro-6-(piperazin-1-yl)-12H-thiochromeno[2,3-c]quinolin-12-one] displayed an IC50 of 51 to 200 nM.
Under `COc1ccc2sc3c(NCCCN)nc4ccccc4c3c(=O)c2c1` [compound 7711, 6-(3-aminopropylamino)-10-methoxy-12H-thiochromeno[2,3-c]quinolin-12-one] stands 51 to 200 nM.
In the case of `COc1cccc2c(=O)c3c(sc12)c(NCCCN)nc1ccccc13` [compound 7212, 6-(3-aminopropylamino)-8-methoxy-12H-thiochromeno[2,3-c]quinolin-12-one] it was under 51 nM.
Under `CCNc1nc2ccccc2c2c(=O)c3cc(C)ccc3sc12` [compound 7232, 6-(ethylamino)-10-methyl-12H-thiochromeno[2,3-c]quinolin-12-one] stands over 1000 nM.
As to `CNCCNc1nc2ccccc2c2c(=O)c3cc(F)ccc3sc12` [compound 7752, 10-fluoro-6-(2-(methylamino)ethylamino)-12H-thiochromeno[2,3-c]quinolin-12-one], the IC50 is under 51 nM.
Under `Nc1nc2ccccc2c2c(=O)c3c(Cl)cccc3sc12` [compound 7724, 6-Amino-11-chloro-12H-thiochromeno[2,3-c]quinolin-12-one] stands over 1000 nM.
Compound `CCNc1nc2ccccc2c2c(=O)c3cc(Cl)ccc3sc12` [compound 7736, 10-chloro-6-(ethylamino)-12H-thiochromeno[2,3-c]quinolin-12-one] gave an IC50 of over 1000 nM.
Turning to `Nc1nc2ccccc2c2c(=O)c3cc(F)ccc3sc12` [compound 7705, 6-amino-10-fluoro-12H-thiochromeno[2,3-c]quinolin-12-one], the IC50 was over 1000 nM.
In the case of `Nc1nc2ccccc2c2c1S(=O)(=O)c1ccc(Cl)cc1C2=O` [compound 7001, 6-Amino-10-chloro-12H-thiochromeno[2,3-c]quinolin-12-one 7,7-dioxide] it was over 1000 nM; in that of `O=c1c2cc(F)ccc2sc2c(Nc3ccncc3)nc3ccccc3c12` [compound 7763, 10-fluoro-6-(pyridin-4-ylamino)-12H-thiochromeno[2,3-c]quinolin-12-one], over 1000 nM; in that of `CN(C)CCCNc1nc2ccccc2c2c(=O)c3cc(Cl)ccc3sc12` [compound 7722, 10-chloro-6-(3-(dimethylamino)propylamino)-12H-thiochromeno[2,3-c]quinolin-12-one], over 1000 nM.
Under `NCCCNc1nc2ccccc2c2c(=O)c3cc(F)cc(F)c3sc12` [compound 7252, 6-(3-aminopropylamino)-8,10-difluoro-12H-thiochromeno[2,3-c]quinolin-12-one] stands 201 to 500 nM.
In the case of `O=c1c2cc(F)ccc2sc2c(OCCO)nc3ccccc3c12` [compound 7728, 10-fluoro-6-(2-hydroxyethoxy)-12H-thiochromeno[2,3-c]quinolin-12-one] it was over 1000 nM.
As for `O=c1c2cc(F)ccc2sc2c(N3CCNCC3)nc3ccc(F)cc3c12` [compound 7425, 2,10-difluoro-6-(piperazin-1-yl)-12H-thiochromeno[2,3-c]quinolin-12-one], the IC50 is over 1000 nM.
In the case of `O=c1c2cc(F)ccc2sc2c(NCCN3CCOCC3)nc3ccccc3c12` [compound 7756, 10-fluoro-6-((2-morpholinoethyl)amino)-12H-thiochromeno[2,3-c]quinolin-12-one] it was over 1000 nM.
In the case of `O=c1c2cc(F)ccc2sc2c(N3CCCC3)nc3ccccc3c12` [compound 7747, 10-fluoro-6-(pyrrolidin-1-yl)-12H-thiochromeno[2,3-c]quinolin-12-one] it was over 1000 nM; in that of `CN1CCN(c2nc3ccccc3c3c(=O)c4cc(F)ccc4sc23)CC1` [compound 7740, 10-fluoro-6-(4-methylpiperazin-1-yl)-12H-thiochromeno[2,3-c]quinolin-12-one], 501 to 1000 nM.

As a reminder, the IC50 is the concentration needed to halve the response being measured. A high value points to a need for much substance.
